Values joined by “and” are separate entries in the source; they are usually repeats but may differ in a detail not shown here. Equal entries are not always repeated.
Experiments:
Wild type mES cells BL/6 = assay: Flow cytometry of BL/6 mES cells labeled with MTTI-157 (percent labeled cells); type: cell-based, mouse
Text: Unlabeled BL/6 cells were used as a control.

TC1 wild type mES cells = assay: Culture and fluorescence microscopy of MTTI-157 labeled TC1 mES cells; type: cell-based, mouse; details: through Day 4, 2 μM and 10 μM dye
Description: The MTTI-157 labeled mES cells were seeded into 12-well plates with about 0.5×10^6 cells per well to grow under normal culture conditions to evaluate cell viability, differentiation, fluorescence dye stability, and dye partitioning to daughter cells over time. Unlabeled normal TC1 wild type mES cells were used as control. The cell associated fluorescence was detected from the plates on an Olympus IX 70 Inverted Light Microscope (Olympus America, Inc., NY) using a Cy5 filter on Days 0, 1 and 4 after seeding.
After dye labeling, the trypan blue staining was performed to detect cell viability. […] The fluorescence is shown in red and paired with the phase-contrast image on its right. […] It is obvious from Rows 2 and 3 that the MTTI-157 incorporated into the mES cells. […] By the next day (Day 1), the cells begin to merge forming clones, as expected, and the fluorescence is seen distributed within the clones with passage to other members of the cell cluster, i.e., the daughter cells. On Day 4, the cell clusters are now larger and more cells within the cluster appear to carry the fluorescence signal.

LS174T cells [1] = assay: Dye transfer: co-culture of dye labeled and unlabeled LS174T cells, flow cytometry; type: cell-based, human
Description: (§1) The human colon cancer cell line LS174T was used here as a model to identify the optimal dyes marker with minimal transfer to neighbor cells for cell tracking. A family of DiD dyes (Ex: 648 nm, Em: 667 nm) with variable lipophilic aliphatic tails (Cm/Cn here refer to lengths lipophilic aliphatic tails in the number of C atoms) were investigated: MT279 (C22/C3), MT280 (C22/C12), MT284 (C14/C3), MT285 (C14/C14), CN1012 (C20/C20), MTTI-157 without the DOTA (C22/C22). LS174T cells were cultured in minimal essential medium (MEM) with nonessential amino acids, 10% fetal bovine serum (FBS) and 1% penicillin/streptomycin at 37° C. in a humidified atmosphere with 5% CO2 and were passaged weekly.
LS174T cells were trypsinized, collected, and washed twice with MEM without serum and labeled with the six dyes according to the method described above. […] Study sets are described below. One (1) ml of the cell suspension was added rapidly to 1 ml of 2× working dye solution and immediately mixed by pipetting. […] Subsequently, the cells suspension was spun at 400 g for 10 min. […] The cell viability was determined by trypan blue staining. The dye labeled cells were co-cultured with an equal number of unlabeled cells under normal culture conditions. Samples were removed at 0 h, 24 h and 48 h after initiation of co-culture and fixed in 2% paraformaldehyde for flow cytometry analysis.

LS174T cells [2] = assay: Flow cytometry of LS174T cells labeled with MTTI-157: labeling efficiency under different conditions; type: cell-based, human; details: for labeling efficiency: Set 1, dye dissolved in ethanol
Description: The method for LS174T cells labeling with MTTI-157 was as described as before. Briefly, LS174T cells were trypsinized, collected, and washed twice with MEM without serum and then resuspended in Diluent C. Immediately, prior to staining; a 2× working dye stock solution in Diluent C was prepared. The cell suspension was added rapidly to an equal volume of the 2× working dye solution and immediately mixed by pipetting up. […] Subsequently, the cell suspension was spun at 400 g for 5 min. […] After labeling, the labeled cells were fixed in 2% paraformaldehyde and analyzed by flow cytometry.
MTTI-157 was dissolved in ethanol at the concentration of 2 μg/μL.
MTTI-157 was dissolved in DMSO at the concentration of 2 μg/μL.

LS174T cells [3] = assay: Optimization of dye concentrations: flow cytometry of LS174T cells labeled with six DiD dyes; type: cell-based, human
Description: as §1
Four working dye stock solutions were investigated. LS174T cells were trypsinized, collected, and washed twice with MEM without serum when the flask was 90% confluent. […] Immediately, prior to staining, 2× working dye stock solutions (1 μM, 4 μM, 10 μM or 20 μM) in Diluent C were prepared. Then 500 μl of cell suspension was added rapidly into 500 μl of 2× working dye and immediately mixed by pipetting. […] The labeled cells were fixed in 2% paraformaldehyde and analyzed by flow cytometry.

CCCCCCCCCCCCCCCCCCCCCCN1C(=CC=CC=CC2=[N+](CCCCCCCCCCCCCCCCCCCCCC)c3ccc(CNC(=O)CN4CCN(CC(=O)O)CCN(CC(=O)O)CCN(CC(=O)O)CC4)cc3C2(C)C)C(C)(C)c2ccccc21.[I-] [MTTI-157]
percent of labeled cells in total cells (Wild type mES cells BL/6; 2 μM dye): 9.8%
percent of labeled cells in total cells (Wild type mES cells BL/6; 10 μM dye): 28.7%
percent of labeled cells in total cells (Wild type mES cells BL/6; 20 μM dye): 34%
effects on cellular differentiation (TC1 wild type mES cells): no obvious effects on cellular differentiation
Percent of unlabeled cells incorporating dye from labeled cells compared to the value at 0 h (LS174T cells [1]; Set 1, 2 μM dye, 24 h of co-culture): 22.39%
Percent of unlabeled cells incorporating dye from labeled cells compared to the value at 0 h (LS174T cells [1]; Set 1, 2 μM dye, 48 h of co-culture): 22.74%
Percent of unlabeled cells incorporating dye from labeled cells compared to the value at 0 h (LS174T cells [1]; Set 2, 10 μM dye, 24 h): 22% and 22.17%
Percent of unlabeled cells incorporating dye from labeled cells compared to the value at 0 h (LS174T cells [1]; Set 2, 10 μM dye, 48 h): 28% and 28.45%
Percent of unlabeled cells incorporating dye from labeled cells compared to the value at 0 h (LS174T cells [1]; Set 3, 5 μM dye, 24 h): 6.93%
Percent of unlabeled cells incorporating dye from labeled cells compared to the value at 0 h (LS174T cells [1]; Set 3, 5 μM dye, 48 h): 22.16%
dye transfer to unlabeled cells (in words) (LS174T cells [1]; Set 4, 0.5 μM dye): dye transfer took place
Percent of unlabeled cells incorporating dye from labeled cells compared to that at 0 h (LS174T cells [1]; Set 4, 0.5 μM dye, 24 h): 13.58%
Percent of unlabeled cells incorporating dye from labeled cells compared to that at 0 h (LS174T cells [1]; Set 4, 0.5 μM dye, 48 h): 14.675%
Percent of unlabeled cells incorporating dye from labeled cells compared to that at 0 h (LS174T cells [1]; Set 4, 2 μM dye, 24 h): 23.555%
Percent of unlabeled cells incorporating dye from labeled cells compared to that at 0 h (LS174T cells [1]; Set 4, 2 μM dye, 48 h): 25.615%
labeling efficiency (LS174T cells [2]; final dye concentration 10 μM): about 60%
labeling efficiency (LS174T cells [2]; highest final dye concentration of 20 μM): about 70%
% labeled cells in total cells by FACS (LS174T cells [2]; dye dissolved in DMSO, final dye 10 μM, final cells 10 ×10^7/ml, DMSO in 2x working dye stock 2%): 97.3%
% labeled cells in total cells by FACS (LS174T cells [2]; dye dissolved in DMSO, final dye 20 μM, final cells 10 ×10^7/ml, DMSO in 2x working dye stock 4%): 97.9%
% labeled cells in total cells by FACS (LS174T cells [2]; dye dissolved in DMSO, final dye 20 μM, final cells 20 ×10^7/ml, DMSO in 2x working dye stock 4%): 98.6%
% labeled cells in total cells by FACS (LS174T cells [2]; dye dissolved in DMSO, final dye 40 μM, final cells 10 ×10^7/ml, DMSO in 2x working dye stock 8%): 99.2%
% labeled cells in total cells by FACS (LS174T cells [2]; dye dissolved in DMSO, final dye 40 μM, final cells 20 ×10^7/ml, DMSO in 2x working dye stock 8%): 98.5%
% labeled cells in total cells by FACS (LS174T cells [2]; dye dissolved in DMSO, final dye 80 μM, final cells 10 ×10^7/ml, DMSO in 2x working dye stock 16%): 99.5%
% labeled cells in total cells by FACS (LS174T cells [2]; dye dissolved in ethanol, final dye 2 μM, final cells 1 ×10^7/ml, DMSO in 2x working dye stock 0%): 12.6%
% labeled cells in total cells by FACS (LS174T cells [2]; dye dissolved in ethanol, final dye 2 μM, final cells 1 ×10^7/ml, DMSO in 2x working dye stock 2%): 23.7%
% labeled cells in total cells by FACS (LS174T cells [2]; dye dissolved in ethanol, final dye 2 μM, final cells 10 ×10^7/ml, DMSO in 2x working dye stock 0%): 29.5%
% labeled cells in total cells by FACS (LS174T cells [2]; dye dissolved in ethanol, final dye 10 μM, final cells 1 ×10^7/ml, DMSO in 2x working dye stock 0%): 62.7%
% labeled cells in total cells by FACS (LS174T cells [2]; dye dissolved in ethanol, final dye 10 μM, final cells 1 ×10^7/ml, DMSO in 2x working dye stock 2%): 55.9%
% labeled cells in total cells by FACS (LS174T cells [2]; dye dissolved in ethanol, final dye 10 μM, final cells 10 ×10^7/ml, DMSO in 2x working dye stock 0%): 57.9%
% labeled cells in total cells by FACS (LS174T cells [2]; dye dissolved in ethanol, final dye 20 μM, final cells 1 ×10^7/ml, DMSO in 2x working dye stock 0%): 74.3%
% labeled cells in total cells by FACS (LS174T cells [2]; dye dissolved in ethanol, final dye 20 μM, final cells 1 ×10^7/ml, DMSO in 2x working dye stock 2%): 71.1%
% labeled cells in total cells by FACS (LS174T cells [2]; dye dissolved in ethanol, final dye 20 μM, final cells 10 ×10^7/ml, DMSO in 2x working dye stock 0%): 75.0%
percent of cells labeled (LS174T cells [3]; dye concentration 0.5 μM): 71.5%
percent of cells labeled (LS174T cells [3]; dye concentration 2 μM): 92.3%
percent of cells labeled (LS174T cells [3]; dye concentration 5 μM): 98.6%
percent of cells labeled (LS174T cells [3]; dye concentration 10 μM): 99.4%

From patent publication US10537650B2, “Molecular probes for multimodality imaging and tracking of stem cells” (University of Massachusetts, priority 2012, dated 2020)
